In US8637537B2, “Serine/threonine kinase inhibitors” (Genentech, Inc., priority 2011, dated 2014):
Read-outs that look alike come from different tables or passages of the source.

Molecular target: T1, human recombinant GST-PAK1-KD protein (Homo sapiens, UniProt Q13153)
T1 construct: residues #249-545 of human PAK1, UniProtKP/Swiss Q13153; His6 (N); made in house; host or cells: Sf9 insect cells, pAcGP67 baculovirus expression vector
Experiment: GST-PAK1-KD (kinase domain) biochemical assay, microfluidic mobility shift
Conditions: Table I, PAK1 Ki class
Description: Activity of human recombinant GST-PAK1-KD protein was assessed in vitro assay by observing the phosphorylation of a fluorogenic peptide substrate.
The peptide substrate is a consensus sequence based on various PAK1 substrates reported in the scientific literature. […] Incubations were carried out at 22° C. in MatriCal MP101 384-well Metriplates™. […] Following the 30-minute incubation, the assay mixtures were quenched by the addition of 3 μL of 250 mM EDTA, and the substrate and phosphorylated product were separated by capillary electrophoresis and detected using LabChip® Caliper 3000 (Caliper Life Sciences).

T1 sequence (Q13153 249-545): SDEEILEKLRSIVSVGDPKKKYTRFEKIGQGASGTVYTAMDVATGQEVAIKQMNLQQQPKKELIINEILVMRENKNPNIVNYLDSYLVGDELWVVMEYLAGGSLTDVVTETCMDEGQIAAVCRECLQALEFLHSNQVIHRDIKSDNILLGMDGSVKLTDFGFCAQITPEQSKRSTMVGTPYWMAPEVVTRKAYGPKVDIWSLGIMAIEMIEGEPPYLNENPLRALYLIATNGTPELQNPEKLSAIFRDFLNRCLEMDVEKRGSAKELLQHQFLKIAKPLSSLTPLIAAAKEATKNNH

| Ki (read-out: Ki) | Ki (Ki) | SMILES |
| --- | --- | --- |
| 250 to 1000 nM | – | Cn1ccc2cc(CNc3nccc(Nc4cc(C5CC5)[nH]n4)n3)ccc21 [I-33, N^4-(5-Cyclopropyl-1H-pyrazol-3-yl)-N^2-((1-methyl-1H-indol-5-yl)methyl)pyrimidine-2,4-diamine] |
| 250 to 1000 nM | – | C[C@H](Nc1nccc(Nc2cc(C3CC3)[nH]n2)n1)c1ccc2cc[nH]c2c1 [I-34, (S)—N^2-(1-(1H-indol-6-yl)ethyl)-N^4-(5-cyclopropyl-1H-pyrazol-3-yl)pyrimidine-2,4-diamine] |
| > 1000 nM | – | c1cc(Nc2cc(C3CC3)[nH]n2)nc(NCc2ccc3cc[nH]c3c2)n1 [I-35, N^2-((1H-Indol-6-yl)methyl)-N^4-(5-cyclopropyl-1H-pyrazol-3-yl)pyrimidine-2,4-diamine] |
| < 50 nM | – | c1cc(CNc2nccc(Nc3cc(C4CCC4)[nH]n3)n2)c2cc[nH]c2c1 [I-36, N^2-((1H-indol-4-yl)methyl)-N^4-(5-cyclobutyl-1H-pyrazol-3-yl)pyrimidine-2,4-diamine] |
| < 50 nM | – | O=C(c1c[nH]c2cccc(CNc3nccc(Nc4cc(C5CC5)[nH]n4)n3)c12)C(F)(F)F [I-37, 1-(4-((4-(5-cyclopropyl-1H-pyrazol-3-ylamino)pyrimidin-2-ylamino)methyl)-1H-indol-3-yl)-2,2,2-trifluoroethanone] |
| 50 to 250 nM | – | c1cc(CNc2nccc(Nc3cc(C4CC4)[nH]n3)n2)c2cc[nH]c2c1 [I-38, N^2-((1H-Indol-4-yl)methyl)-N^4-(5-cyclopropyl-1H-pyrazol-3-yl)pyrimidine-2,4-diamine] |
| 50 to 250 nM | – | CN(Cc1cccc2[nH]ccc12)c1nccc(Nc2cc(C3CC3)[nH]n2)n1 [I-40, N^2-((1H-Indol-4-yl)methyl)-N^4-(5-cyclopropyl-1H-pyrazol-3-yl)-N^2-methylpyrimidine-2,4-diamine] |
| 250 to 1000 nM | – | FC(F)(F)c1cc(Nc2cc(C3CC3)[nH]n2)nc(NCc2cccc3[nH]ccc23)n1 [I-41, N^2-((1H-indol-4-yl)methyl)-N^4-(5-cyclopropyl-1H-pyrazol-3-yl)-6-(trifluoromethyl)pyrimidine-2,4-diamine] |
| 250 to 1000 nM | – | c1cc(CNc2nccc(Nc3cc(OCC4CC4)[nH]n3)n2)c2cc[nH]c2c1 [I-42, N^2-((1H-indol-4-yl)methyl)-N^4(5-(cyclopropylmethoxy)-1H-pyrazol-3-yl)pyrimidine-2,4-diamine] |
| 250 to 1000 nM | – | CC[C@@H](Nc1nccc(Nc2cc(C3CC3)[nH]n2)n1)c1ccc2[nH]cnc2c1 [I-43, N^2-[(1R)-1-(1H-benzimidazol-5-yl)propyl]-N^4-(5-cyclopropyl-1H-pyrazol-3-yl)pyrimidine-2,4-diamine] |
| 50 to 250 nM | – | C[C@H](Nc1nccc(Nc2cc(C3CCCO3)[nH]n2)n1)c1ccc2[nH]cnc2c1 (stereo partly drawn) [I-44, N^2—((S)-1-(1H-benzo[d]imidazol-5-yl)ethyl)-N^4-(5-(tetrahydrofuran-2-yl)-1H-pyrazol-3-yl)pyrimidine-2,4-diamine] |
| 50 to 250 nM | – | C[C@H](Nc1ncc(Cl)c(Nc2cc(C3CC3)[nH]n2)n1)c1ccc2[nH]cnc2c1 [I-46, (S)—N^2-(1-(1H-benzo[d]imidazol-5-yl)ethyl)-5-chloro-N^4-(5-cyclopropyl-1H-pyrazol-3-yl)pyrimidine-2,4-diamine] |
| 250 to 1000 nM | – | Fc1ccc(CNc2nccc(Nc3cc(C4CC4)[nH]n3)n2)c2cc[nH]c12 [I-47, N^4-(5-cyclopropyl-1H-pyrazol-3-yl)-N^2-((7-fluoro-1H-indol-4-yl)methyl)pyrimidine-2,4-diamine] |
| 50 to 250 nM | – | c1cc(CNc2nccc(Nc3cc(CC4CC4)[nH]n3)n2)c2cc[nH]c2c1 [I-48, N^2-((1H-indol-4-yl)methyl)-N^4-(5-(cyclopropylmethyl)-1H-pyrazol-3-yl)pyrimidine-2,4-diamine] |
| 250 to 1000 nM | – | Clc1cnc(NCc2cccc3[nH]ccc23)nc1Nc1cc(C2CC2)[nH]n1 [I-49, N^2-((1H-indol-4-yl)methyl)-5-chloro-N^4-(5-cyclopropyl-1H-pyrazol-3-yl)pyrimidine-2,4-diamine] |
| 50 to 250 nM | – | c1cc(CNc2nccc(Nc3cc(C4CCCC4)[nH]n3)n2)c2cc[nH]c2c1 [I-50, N^2-((1H-indol-4-yl)methyl)-N^4-(5-cyclopentyl-1H-pyrazol-3-yl)pyrimidine-2,4-diamine] |
| 50 to 250 nM | – | c1cc(CNc2nccc(Nc3cc(C4CCOC4)[nH]n3)n2)c2cc[nH]c2c1 (stereo not drawn) [I-51, N^2-((1H-indol-4-yl)methyl)-N^4-(5-(tetrahydrofuran-3-yl)-1H-pyrazol-3-yl)pyrimidine-2,4-diamine] |
| 50 to 250 nM | – | Cc1ccc(CNc2nccc(Nc3cc(C4CC4)[nH]n3)n2)c2cc[nH]c12 [I-52, N^4-(5-Cyclopropyl-1H-pyrazol-3-yl)-N^2-((7-methyl-1H-indol-4-yl)methyl)pyrimidine-2,4-diamine] |

| Ki (read-out: Ki) | Ki (Ki) | SMILES |
| --- | --- | --- |
| < 50 nM | – | Fc1cc(CNc2nccc(Nc3cc(C4CC4)[nH]n3)n2)c2cc[nH]c2c1 [I-53, N^4-(5-cyclopropyl-1H-pyrazol-3-yl)-N^2-((6-fluoro-1H-indol-4-yl)methyl)pyrimidine-2,4-diamine] |
| 50 to 250 nM | – | Cc1cc(Nc2cc(C3CC3)[nH]n2)nc(NCc2cccc3[nH]ccc23)n1 [I-54, N^2-((1H-indol-4-yl)methyl)-N^4-(5-cyclopropyl-1H-pyrazol-3-yl)-6-methylpyrimidine-2,4-diamine] |
| 50 to 250 nM | – | C[C@H](c1ccc2[nH]cnc2c1)N(C)c1nccc(Nc2cc(C3CC3)[nH]n2)n1 [I-55, (R)—N^2-(1-(1H-benzo[d]imidazol-5-yl)ethyl)-N^4-(5-cyclopropyl-1H-pyrazol-3-yl)-N^2-methylpyrimidine-2,4-diamine] |
| > 1000 nM | – | Cc1cc(Nc2ccnc(NCc3cccc4[nH]ccc34)n2)n[nH]1 [I-56, N^2-((1H-indol-4-yl)methyl)-N^4-(5-methyl-1H-pyrazol-3-yl)pyrimidine-2,4-diamine] |
| 50 to 250 nM | – | CC(C)c1cc(Nc2ccnc(NCc3cccc4[nH]ccc34)n2)n[nH]1 [I-58, N^2-((1H-indol-4-yl)methyl)-N^4-(5-isopropyl-1H-pyrazol-3-yl)pyrimidine-2,4-diamine] |
| – | > 1000 nM | C[C@@H](Nc1nccc(Nc2cc(C3CC3)[nH]n2)n1)c1ccc2[nH]ccc2c1 [I-60, (R)—N^2-(1-(1H-indol-5-yl)ethyl)-N^4-(5-cyclopropyl-1H-pyrazol-3-yl)pyrimidine-2,4-diamine] |
| 50 to 250 nM | – | C[C@H](Nc1nccc(Nc2cc([C@@H]3CC3(F)F)[nH]n2)n1)c1ccc2[nH]cnc2c1 [I-61, N^2—((S)-1-(1H-benzo[d]imidazol-5-yl)ethyl)-N^4-(5-((S)-2,2-difluorocyclopropyl)-1H-pyrazol-3-yl)pyrimidine-2,4-diamine] |
| 50 to 250 nM | – | OCCN(Cc1ccc2[nH]cnc2c1)c1nccc(Nc2cc(C3CC3)[nH]n2)n1 [I-63, 2-(((1H-benzo[d]imidazol-5-yl)methyl)(4-(5-cyclopropyl-1H-pyrazol-3-ylamino)pyrimidin-2-yl)amino)ethanol] |
| 50 to 250 nM | – | C[C@H](Nc1nccc(Nc2cc([C@@H]3C[C@@H]3F)[nH]n2)n1)c1ccc2[nH]ccc2c1 [I-64, N^2—((S)-1-(1H-indol-5-yl)ethyl)-N^4-(5-((1S,2S)-2-fluorocyclopropyl)-1H-pyrazol-3-yl)pyrimidine-2,4-diamine] |
| < 50 nM | – | C[C@H](Nc1nccc(Nc2cc([C@H]3C[C@H]3F)[nH]n2)n1)c1ccc2[nH]ccc2c1 [I-65, N^2—((S)-1-(1H-indol-5-yl)ethyl)-N^4-(5-((1R,2R)-2-fluorocyclopropyl)-1H-pyrazol-3-yl)pyrimidine-2,4-diamine] |
| < 50 nM | – | C[C@H](Nc1nccc(Nc2cc([C@H]3C[C@H]3F)[nH]n2)n1)c1ccc2[nH]cnc2c1 [I-68, N^2—((S)-1-(1H-benzo[d]imidazol-5-yl)ethyl)-N^4-(5-((1R,2R)-2-fluorocyclopropyl)-1H-pyrazol-3-yl)pyrimidine-2,4-diamine] |
| < 50 nM | – | C[C@H](Nc1nccc(Nc2cc([C@@H]3C[C@H]3F)[nH]n2)n1)c1ccc2[nH]cnc2c1 [I-69, N^2—((S)-1-(1H-benzo[d]imidazol-5-yl)ethyl)-N^4-(5-((1S,2R)-2-fluorocyclopropyl)-1H-pyrazol-3-yl)pyrimidine-2,4-diamine] |
| < 50 nM | – | C[C@H](Nc1nccc(Nc2cc([C@H]3C[C@@H]3F)[nH]n2)n1)c1ccc2[nH]cnc2c1 [I-70, N^2—((S)-1-(1H-benzo[d]imidazol-5-yl)ethyl)-N^4-(5-((1R,2S)-2-fluorocyclopropyl)-1H-pyrazol-3-yl)pyrimidine-2,4-diamine] |
| < 50 nM | – | CCN(Cc1ccc2[nH]cnc2c1)c1nccc(Nc2cc(C3CC3)[nH]n2)n1 [I-71, N^2-((1H-benzo[d]imidazol-5-yl)methyl)-N^4-(5-cyclopropyl-1H-pyrazol-3-yl)-N^2-ethylpyrimidine-2,4-diamine] |
| < 50 nM | – | C[C@H](Nc1nccc(Nc2cc([C@@H]3C[C@H]3F)[nH]n2)n1)c1ccc2[nH]ccc2c1 [I-72, N^2—((S)-1-(1H-indol-5-yl)ethyl)-N^4-(5-((1S,2R)-2-fluorocyclopropyl)-1H-pyrazol-3-yl)pyrimidine-2,4-diamine] |
| < 50 nM | – | C[C@H](Nc1nccc(Nc2cc([C@H]3C[C@@H]3F)[nH]n2)n1)c1ccc2[nH]ccc2c1 [I-73, N^2—((S)-1-(1H-indol-5-yl)ethyl)-N^4-(5-((1R,2S)-2-fluorocyclopropyl)-1H-pyrazol-3-yl)pyrimidine-2,4-diamine] |
| < 50 nM | – | FC1(F)C[C@H]1c1cc(Nc2ccnc(NCc3ccc4[nH]cnc4c3Cl)n2)n[nH]1 [I-74, (S)—N^2-((4-chloro-1H-benzo[d]imidazol-5-yl)methyl)-N^4-(5-(2,2-difluorocyclopropyl)-1H-pyrazol-3-yl)pyrimidine-2,4-diamine] |
| < 50 nM | – | FC1(F)C[C@@H]1c1cc(Nc2ccnc(NCc3ccc4[nH]cnc4c3Cl)n2)n[nH]1 [I-75, (R)—N^2-((4-chloro-1H-benzo[d]imidazol-5-yl)methyl)-N^4-(5-(2,2-difluorocyclopropyl)-1H-pyrazol-3-yl)pyrimidine-2,4-diamine] |
